SMILES strings stand for the structures.

T1 sequence (P28845 whole entry): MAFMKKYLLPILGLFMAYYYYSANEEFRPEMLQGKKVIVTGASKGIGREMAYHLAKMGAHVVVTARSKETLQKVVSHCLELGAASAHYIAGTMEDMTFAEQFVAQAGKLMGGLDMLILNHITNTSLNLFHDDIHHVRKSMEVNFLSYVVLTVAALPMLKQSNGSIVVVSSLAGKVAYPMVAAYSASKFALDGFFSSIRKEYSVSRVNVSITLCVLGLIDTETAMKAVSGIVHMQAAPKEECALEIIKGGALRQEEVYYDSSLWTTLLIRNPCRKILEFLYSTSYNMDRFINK

This assay concerns the target T1, human HSD1 (recombinant HSD1) (Homo sapiens, UniProt P28845).
T1 construct: made in house
The experiment in a line: In vitro HSD1 activity inhibitory action, SPA of cortisone to cortisol conversion. The class given is biochemical. The note with it: recombinant human HSD1 0.1 μg/ml, 500 μM NADPH, 16 nM 3H cortisone, room temperature 90 min, read-out: hHSD1 IC50. As to the method: In Vitro HSD1 (Hydroxysteroid Dehydrogenase 1) Activity Inhibitory Action
The HSD1 inhibitory activity was examined by quantitative determination by an SPA (scintillation proximity assay) system of the suppressive action on the conversion from cortisone to cortisol using human HSD1 (hereinafter recombinant HSD1) expressed using a baculo-virus system as an enzyme source. For the reaction, a reagent was added to a 96 well plate (96 well Opti-plates™-96 (Packard)) to the following final concentration and a volume of 100 μl was reacted at room temperature for 90 min. The reaction solution used was 0.1 μg/ml recombinant HSD1, 500 μM NADPH, 16 nM ^3H cortisone (Amersham Biosciences, 1.78 Tbq/mol) dissolved in 0.1% BSA (Sigma)-containing PBS and the test drug was 2 μl of a compound solution (dissolved in DMSO). After 90 min, the reaction was stopped by adding PBS (40 μl, containing 0.1% BSA (Sigma)) containing 0.08 μg of anti-cortisol mouse monoclonal antibody (East Coast Biologics), 365 μg SPA PVT mouse antibody-binding beads (Amersham Biosciences) and 175 μM carbenoxolone (Sigma) to the reaction solution. After the completion of the reaction, the plate was incubated overnight at room temperature and the radioactivity was measured by Topcount (Packard). For control, the value (0% inhibition) of the well containing 2 μl of DMSO instead of the test drug was used, and for positive control, the value (100% inhibition) of the well containing carbenoxolone instead of the test drug at the final concentration of 50 μM was used. The inhibition (%) of the test drug was calculated by ((value of control−value of test drug)/(value of control−value of positive control))×100 (%). The IC50 value was analyzed using a computer-based curve fitting soft.
As for `COC(=O)C1(c2ccccc2)CCN(c2nnc(C3(c4ccccc4)CC3)n2C)CC1` [Ex. 2-2], the IC50 – broadly, the concentration that inhibits the measured activity by half – was in the range of 0.01 to 1 µM.

`COC(=O)C1CCN(c2nnc(C3(c4ccccc4)CC3)n2C)CC1` [Ex. 2-4]: the IC50 lay in the range of 0.01 to 1 µM.

For the compound `Cn1c(N2CCC(C(=O)O)CC2)nnc1C1(c2ccccc2)CC1` [Ex. 2-5], the IC50 was in the range of 0.01 to 1 µM.

`Cn1c(N2CCC(CO)CC2)nnc1C1(c2ccccc2)CC1` [Ex. 2-6]: the IC50 was less than 0.01 µM.

`Cn1c(N2CCC(NC(=O)OC(C)(C)C)CC2)nnc1C1(c2ccccc2)CC1` [Ex. 2-7]: the IC50 lay in the range of 0.01 to 1 µM.

Consider `Cn1c(N2CCC(N)CC2)nnc1C1(c2ccccc2)CC1` [Ex. 2-8], for which the IC50 is 0.01 to 1 µM.

For the compound `CC(=O)NC1CCN(c2nnc(C3(c4ccccc4)CC3)n2C)CC1` [Ex. 2-9], the IC50 was 0.01 to 1 µM.

In the case of `Cn1c(N2CCC(NC(=O)c3ccc(Cl)cc3Cl)CC2)nnc1C1(c2ccccc2)CC1` [Ex. 2-10], the IC50 is 0.01 to 1 µM.

Take `CN(C(=O)OC(C)(C)C)C1CCN(c2nnc(C3(c4ccccc4)CC3)n2C)CC1` [Ex. 2-11]: the IC50 is 0.01 to 1 µM.

For the compound `CNC1CCN(c2nnc(C3(c4ccccc4)CC3)n2C)CC1` [Ex. 2-12], the IC50 was 0.01 to 1 µM.

Turning to `CC(=O)N(C)C1CCN(c2nnc(C3(c4ccccc4)CC3)n2C)CC1` [Ex. 2-13], the IC50 is 0.01 to 1 µM.

With `Cn1c(N2CCCCC2)nnc1C1(c2ccccc2)CC1` [Ex. 2-14], the IC50 is less than 0.01 µM.

Consider `Cn1c(N2CCC(C(F)(F)F)CC2)nnc1C1(c2ccccc2)CC1` [Ex. 2-15], for which the IC50 is less than 0.01 µM.

On to `Cn1c(N2CCC(C(N)=O)CC2)nnc1C1(c2ccccc2)CC1` [Ex. 2-16], for which the IC50 is less than 0.01 µM.

On to `Cn1c(N2CCC(CO)(c3ccccc3)CC2)nnc1C1(c2ccccc2)CC1` [Ex. 2-17], for which the IC50 was 0.01 to 1 µM.

Take `CNC(=O)C1CCN(c2nnc(C3(c4ccccc4)CC3)n2C)CC1` [Ex. 2-18]: the IC50 lay within 0.01 to 1 µM.

`CN(C)C(=O)C1CCN(c2nnc(C3(c4ccccc4)CC3)n2C)CC1` [Ex. 2-19]: the IC50 was 0.01 to 1 µM.

In the case of `Cn1c(N2CCOCC2)nnc1C1(c2ccccc2)CC1` [Ex. 2-20], the IC50 is less than 0.01 µM.

`Cn1c(N2CCSCC2)nnc1C1(c2ccccc2)CC1` [Ex. 2-21]: the IC50 was less than 0.01 µM.

For the compound `Cn1c(N2CCS(=O)(=O)CC2)nnc1C1(c2ccccc2)CC1` [Ex. 2-22], the IC50 lay within 0.01 to 1 µM.

For `Cn1c(N2CC[S+]([O-])CC2)nnc1C1(c2ccccc2)CC1` [Ex. 2-23], the IC50 lay within 0.01 to 1 µM.

Take `Cn1c(N2CCc3ccccc3C2)nnc1C1(c2ccccc2)CC1` [Ex. 2-24]: the IC50 is less than 0.01 µM.

Consider `Cn1c(N2CCCc3ccccc32)nnc1C1(c2ccccc2)CC1` [Ex. 2-25], for which the IC50 was less than 0.01 µM.

`Cn1c(N2CCNCC2)nnc1C1(c2ccccc2)CC1` [Ex. 2-26]: the IC50 lay within 0.01 to 1 µM.

For the compound `CC(=O)N1CCN(c2nnc(C3(c4ccccc4)CC3)n2C)CC1` [Ex. 2-27], the IC50 fell in the range of 0.01 to 1 µM.

For the compound `Cn1c(N2CCC(Oc3ncc(Cl)cc3Cl)CC2)nnc1C1(c2ccc(Cl)cc2)CC1` [Ex. 2-29], the IC50 was in the range of 0.01 to 1 µM.

For `Cn1c(N2CCC(Oc3ccccc3Cl)CC2)nnc1C1(c2ccccc2)CC1` [Ex. 2-30], the IC50 is less than 0.01 µM.

On to `Cn1c(N2CCC(Oc3ncc(Cl)cc3Cl)CC2)nnc1C1(c2ccc(F)cc2)CC1` [Ex. 2-31], for which the IC50 was less than 0.01 µM.

Turning to `Cn1c(N2CCC(O)CC2)nnc1C1(c2ccccc2)CC1` [Ex. 2-32], the IC50 was less than 0.01 µM.

As for `Cn1c(N2CCC(Nc3ncc(Cl)cc3Cl)CC2)nnc1C1(c2ccccc2)CC1` [Ex. 2-33], the IC50 lay in the range of 0.01 to 1 µM.

Consider `Cn1c(N2CCC(Cc3ccccc3)CC2)nnc1C1(c2ccccc2)CC1` [Ex. 2-34], for which the IC50 lay within 0.01 to 1 µM.

On to `Cn1c(N2CCC(Oc3ccc(Cl)cc3)CC2)nnc1C1(c2ccccc2)CC1` [Ex. 2-35], for which the IC50 was less than 0.01 µM.

For `Cn1c(N2CCC(Oc3ccc(F)cc3Cl)CC2)nnc1C1(c2ccccc2)CC1` [Ex. 2-36], the IC50 is less than 0.01 µM.

For `Cn1c(N2CCC(Oc3ncc(C(F)(F)F)cc3Cl)CC2)nnc1C1(c2ccccc2)CC1` [Ex. 2-37], the half-inhibitory concentration (IC50) lay within 0.01 to 1 µM.

Take `Cn1c(N2CCC(Oc3ncccc3Cl)CC2)nnc1C1(c2ccccc2)CC1` [Ex. 2-38]: the IC50 was less than 0.01 µM.

For `Cn1c(N2CCC(Oc3ccc(Cl)cn3)CC2)nnc1C1(c2ccccc2)CC1` [Ex. 2-39], the IC50 was less than 0.01 µM.

Regarding `Cn1c(N2CCC(O)(c3ccccc3)CC2)nnc1C1(c2ccccc2)CC1` [Ex. 2-40], the IC50 was in the range of 0.01 to 1 µM.

For `CN(c1ncc(Cl)cc1Cl)C1CCN(c2nnc(C3(c4ccccc4)CC3)n2C)CC1` [Ex. 2-41], the IC50 fell in the range of 0.01 to 1 µM.

For the compound `COC1(c2ccccc2)CCN(c2nnc(C3(c4ccccc4)CC3)n2C)CC1` [Ex. 2-42], the IC50 was in the range of 0.01 to 1 µM.

On to `COC1CCN(c2nnc(C3(c4ccccc4)CC3)n2C)CC1` [Ex. 2-43], for which the IC50 lay within 0.01 to 1 µM.

Turning to `Cn1c(N2CCC(Oc3ccc(C(=O)O)cc3)CC2)nnc1C1(c2ccccc2)CC1` [Ex. 2-44], the IC50 lay within 0.01 to 1 µM.

As for `Cn1c(N2CCC(Oc3cccc(C(=O)O)c3)CC2)nnc1C1(c2ccccc2)CC1` [Ex. 2-45], the IC50 lay within 0.01 to 1 µM.

Take `Cn1c(N2CCC(Oc3ccccc3C(=O)O)CC2)nnc1C1(c2ccccc2)CC1` [Ex. 2-46]: the IC50 lay in the range of 0.01 to 1 µM.

On to `COC(=O)c1ccc(OC2CCN(c3nnc(C4(c5ccccc5)CC4)n3C)CC2)cc1` [Ex. 2-47], for which the IC50 fell in the range of 0.01 to 1 µM.

As for `Cn1c(N2CCC(=O)CC2)nnc1C1(c2ccccc2)CC1` [Ex. 2-48], the IC50 is less than 0.01 µM.

As to `COC(=O)c1cccc(OC2CCN(c3nnc(C4(c5ccccc5)CC4)n3C)CC2)c1` [Ex. 2-49], the IC50 is less than 0.01 µM.

For `COC(=O)c1ccccc1OC1CCN(c2nnc(C3(c4ccccc4)CC3)n2C)CC1` [Ex. 2-50], the IC50 fell in the range of 0.01 to 1 µM.

For the compound `Cn1c(N2CCC(Oc3ccc(F)cc3)CC2)nnc1C1(c2ccccc2)CC1` [Ex. 2-51], the IC50 is less than 0.01 µM.

As for `Cn1c(N2CCC(Oc3ccc(C#N)cc3)CC2)nnc1C1(c2ccccc2)CC1` [Ex. 2-52], the IC50 is less than 0.01 µM.

With `CC1CCN(c2nnc(C3(c4ccccc4)CC3)n2C)CC1` [Ex. 2-53], the IC50 was less than 0.01 µM.

As for `Cn1c(N2CCC(Oc3cccc(CO)c3)CC2)nnc1C1(c2ccccc2)CC1` [Ex. 2-54], the IC50 was in the range of 0.01 to 1 µM.

As for `Cn1c(N2CCC(Oc3cccc(C(N)=O)c3)CC2)nnc1C1(c2ccccc2)CC1` [Ex. 2-55], the IC50 is 0.01 to 1 µM.

As to `CNC(=O)c1cccc(OC2CCN(c3nnc(C4(c5ccccc5)CC4)n3C)CC2)c1` [Ex. 2-56], the IC50 fell in the range of 0.01 to 1 µM.

On to `CN(C)C(=O)c1cccc(OC2CCN(c3nnc(C4(c5ccccc5)CC4)n3C)CC2)c1` [Ex. 2-57], for which the IC50 fell in the range of 0.01 to 1 µM.

For `Cn1c(N2CCC(C)(C)CC2)nnc1C1(c2ccccc2)CC1` [Ex. 2-58], the IC50 is less than 0.01 µM.

As for `Cn1c(N2CCC(C)(O)CC2)nnc1C1(c2ccccc2)CC1` [Ex. 2-59], the IC50 was less than 0.01 µM.

As for `Cn1c(N2CCC(C)(C)CC2)nnc1C1(c2ccc(F)cc2)CC1` [Ex. 2-60], the IC50 was less than 0.01 µM.

Consider `Cn1c(N2CCC(CCO)CC2)nnc1C1(c2ccccc2)CC1` [Ex. 2-61], for which the IC50 was less than 0.01 µM.

Regarding `COC(=O)c1cc(OC2CCN(c3nnc(C4(c5ccccc5)CC4)n3C)CC2)ccc1Cl` [Ex. 2-62], the IC50 was 0.01 to 1 µM.

As for `Cn1c(N2CCC(Oc3ccc(Cl)c(CO)c3)CC2)nnc1C1(c2ccccc2)CC1` [Ex. 2-63], the IC50 was 0.01 to 1 µM.

Values taken from US8153631B2, “Triazole compounds and uses related thereto” (Amgen Inc., priority 2003, dated 2012).
